One data set has as its system appetite. As to the kind of experiment: appetite suppression after oral consumption by a subject. It is filed as in vivo. The settings on record: consumed orally by a subject; 'results have shown'; listed as Moringine. Here is the method:
Generally speaking, most parts of the Moringa Oleifera tree are edible, with the leaves and seeds often being associated with most of the above-mentioned nutritional and health benefits.
However, the medium lethal dose (LD50) of benzylamine in subjects is understood to be about 600 milligrams (mg) per kilogram (kg) (i.e., 600 mg/kg). […] However, in accordance with the novel appetite suppression compositions and methods described herein, an effective amount of benzylamine that is far below the LD50 can be orally administered to adult humans for appetite suppression.

The conditions of data set [1]: in subjects; 'understood to be'; cited from earlier work.
For data set [2] the following is noted: 'thought to be' / 'believed to be'; cited from earlier work.

SMILES strings stand for the structures.

As for `NCc1ccccc1` [benzylamine], in the data set on appetite, the appetite suppression entry is listed as “can suppress a subject's appetite”. In addition, the “medium lethal dose (LD50)” value in data set [1] is “about 600 mg/kg”. Further, the in vivo half-life in data set [2] is 15 to 30 min.

Source of the values: US20140235729A1, “BENZYLAMINE CONTAINING COMPOSITIONS AND METHODS FOR APPETITE SUPPRESSION” (Zija International, Inc., priority 2013, published 2014).
